Laboratory results reported in US20160168118A1, “N-(5-QUINOLIN-6-YL)PYRIDIN-3-YL) BENZSULFAMIDE DERIVATIVES, PREPARATION METHOD AND THERAPEUTIC USE THEREOF” (SECOND MILITARY MEDICAL UNIVERSITY, PLA, priority 2012, published 2016).
In brackets after ≈: the same amount, converted by molar mass.

Columns and labels:
PI3Kα = PI3Kα (Homo sapiens, UniProt P42336); experiment: Kinase-Glo Luminescent Kinase Assay, PI3Kα; type: biochemical
[1] = tested on: A549 (human lung cancer cells); experiment: MTT assay, A549; type: cell-based; details: 72 h
Experimental: (§1) 1. Sample preparation: After dissolved with DMSO (Merck), PBS (−) was added to make 1000 μg/ml solution or a uniform suspension, and then diluted with PBS (−) containing the DMSO. Doxorubicin (DOX) was used as the positive control drug.
(§2) 2. Cell Line • 1) A549 (human lung cancer cells); 2) HCT116 (human colon cancer cells); 3) HepG2 (human hepatoma cells); 4) ZR-75-30 (human breast cancer cells); 5) U87MG (human brain star glioblastoma)
(§3) DMEM+5-10% FBS+double resistant
(§4) MTT assay. 100 μl cell suspension was added at a concentration of 4˜5×10^4 cells/ml to each well of a 96-well plate, and was set at 37° C., 5% CO2 in the incubator. After 24 h, the sample solution was added, 10 μl/hole, double wells were set, 37° C., acting for 72 h at 5% CO2. […] of 5 mg/ml was added to each well, the dissolving liquid was added after acted for 4 h, 100 μl/hole, kept in the incubator, and read 570 nm OD with MK-2 automatic microplate reader after dissolution.

[2] = tested on: HCT116 (human colon cancer cells); experiment: MTT assay, HCT116; type: cell-based; details: HCT-116, 72 h
[3] = tested on: U87MG (human brain star glioblastoma); experiment: MTT assay, U87MG; type: cell-based; details: U-87 MG, 72 h
Experimental: as §1, §2, §3, §4

[4] = tested on: HepG2 (human hepatoma cells); experiment: MTT assay, HepG2; type: cell-based; details: 72 h
Experimental: as §1, §2, §3, §4

PI3Kα, sequence (P42336 whole entry, species assumed): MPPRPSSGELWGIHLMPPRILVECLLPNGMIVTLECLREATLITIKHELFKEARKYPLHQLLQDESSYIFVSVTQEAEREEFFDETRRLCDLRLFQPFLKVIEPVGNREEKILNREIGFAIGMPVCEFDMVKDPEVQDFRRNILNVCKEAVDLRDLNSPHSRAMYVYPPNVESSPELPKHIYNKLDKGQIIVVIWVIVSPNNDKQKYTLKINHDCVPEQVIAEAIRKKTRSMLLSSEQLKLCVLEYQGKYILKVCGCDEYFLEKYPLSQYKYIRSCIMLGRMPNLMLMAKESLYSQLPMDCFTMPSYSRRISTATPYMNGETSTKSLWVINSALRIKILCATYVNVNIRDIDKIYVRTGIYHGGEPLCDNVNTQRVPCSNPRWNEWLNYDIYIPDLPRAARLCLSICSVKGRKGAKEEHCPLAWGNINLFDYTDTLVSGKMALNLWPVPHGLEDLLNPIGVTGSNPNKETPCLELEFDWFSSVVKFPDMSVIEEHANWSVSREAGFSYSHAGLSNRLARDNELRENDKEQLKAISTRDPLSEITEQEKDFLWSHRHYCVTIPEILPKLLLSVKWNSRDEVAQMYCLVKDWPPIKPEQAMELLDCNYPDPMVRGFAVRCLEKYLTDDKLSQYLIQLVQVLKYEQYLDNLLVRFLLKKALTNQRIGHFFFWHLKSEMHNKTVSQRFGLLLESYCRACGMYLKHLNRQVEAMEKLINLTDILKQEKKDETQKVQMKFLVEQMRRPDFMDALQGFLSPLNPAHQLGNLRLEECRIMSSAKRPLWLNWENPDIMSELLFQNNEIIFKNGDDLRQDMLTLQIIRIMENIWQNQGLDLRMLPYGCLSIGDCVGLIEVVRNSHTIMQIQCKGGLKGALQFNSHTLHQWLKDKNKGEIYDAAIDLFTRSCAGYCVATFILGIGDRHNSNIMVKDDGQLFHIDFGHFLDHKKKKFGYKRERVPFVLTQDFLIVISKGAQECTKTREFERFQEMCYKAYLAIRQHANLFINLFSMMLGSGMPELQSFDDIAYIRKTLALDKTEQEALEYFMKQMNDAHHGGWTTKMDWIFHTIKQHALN
PI3Kα, sequence (P27986 whole entry partner, species assumed): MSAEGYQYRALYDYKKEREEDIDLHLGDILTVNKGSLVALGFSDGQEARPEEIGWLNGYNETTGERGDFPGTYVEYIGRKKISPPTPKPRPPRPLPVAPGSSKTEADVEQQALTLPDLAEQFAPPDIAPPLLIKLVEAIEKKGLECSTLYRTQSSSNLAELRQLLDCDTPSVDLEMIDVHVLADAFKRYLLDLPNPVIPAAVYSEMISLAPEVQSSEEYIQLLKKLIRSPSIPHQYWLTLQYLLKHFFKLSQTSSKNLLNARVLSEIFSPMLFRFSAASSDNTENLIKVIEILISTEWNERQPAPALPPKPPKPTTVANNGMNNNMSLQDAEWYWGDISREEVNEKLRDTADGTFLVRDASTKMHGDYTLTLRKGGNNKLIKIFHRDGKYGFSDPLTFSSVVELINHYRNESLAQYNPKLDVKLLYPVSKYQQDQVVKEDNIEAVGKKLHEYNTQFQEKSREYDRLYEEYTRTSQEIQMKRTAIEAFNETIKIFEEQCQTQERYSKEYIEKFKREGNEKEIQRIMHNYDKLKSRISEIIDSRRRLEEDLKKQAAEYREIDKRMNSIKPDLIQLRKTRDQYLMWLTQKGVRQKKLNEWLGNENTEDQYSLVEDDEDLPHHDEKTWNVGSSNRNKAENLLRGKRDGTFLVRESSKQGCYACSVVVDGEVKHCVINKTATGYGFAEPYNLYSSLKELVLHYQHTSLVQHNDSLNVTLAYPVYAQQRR

Row | SMILES | IC50 (PI3Kα) [nM] | IC50 [1] [µg/mL] | IC50 [2] [µg/mL] | IC50 [3] [µg/mL] | melting point [°C] | IC50 [4] [µg/mL]
1 | COc1ncc(-c2ccc3nccc(-c4ccc(CN5CCCC5)cc4)c3c2)cc1NS(=O)(=O)c1ccc(F)cc1F [Compound 12] | 1.4 | 0.022 (≈ 0.0375 µM) | 0.011 (≈ 0.0188 µM) | 0.093 (≈ 0.159 µM) | 129 to 130 | –
2 | COc1ncc(-c2ccc3nccc(-c4ccc(CN5CCCCC5)cc4)c3c2)cc1NS(=O)(=O)c1ccc(F)cc1F [Compound 14, N-(5-(4-(4-((piperidine-1-yl)methyl)phenyl)quinolin-6-yl)-2-methoxypyridine-3-yl)-2,4-difluorobenzenesulfonamide] | 1.2 | 0.00934 (≈ 0.0155 µM) | 0.0205 (≈ 0.0341 µM) | 0.019 (≈ 0.0316 µM) | – | –
3 | COc1ncc(-c2ccc3nccc(-c4ccc(CN5CCN(C(C)C)CC5)cc4)c3c2)cc1NS(=O)(=O)c1ccc(F)cc1F [Compound 18, N-(5-(4-(4-((4-isopropylpiperazine-1-yl)methyl)phenyl)quinolin-6-yl)-2-methoxypyridine-3-yl)-2,4-difluorobenzenesulfonamide] | 1.7 | 0.00124 (≈ 0.00193 µM) | 0.0159 (≈ 0.0247 µM) | 0.301 (≈ 0.468 µM) | – | –
4 | COc1ncc(-c2ccc3nccc(-c4ccc(CN5CCN(CCO)CC5)cc4)c3c2)cc1NS(=O)(=O)c1ccc(F)cc1F [Compound 19, N-(5-(4-(4-((4-(2-hydroxyethyl)piperazine-1-yl)methyl)phenyl)quinolin-6-yl)-2-methoxypyridine-3-yl)-2,4-difluorobenzenesulfonamide] | 1.2 | 0.016 (≈ 0.0248 µM) | 0.014 (≈ 0.0217 µM) | 0.137 (≈ 0.212 µM) | – | –
5 | COc1ncc(-c2ccc3nccc(-c4ccc(CN(CCO)CCO)cc4)c3c2)cc1NS(=O)(=O)c1ccc(F)cc1F [Compound 20, N-(5-(4-(4-((di(2-hydroxyethyl)amino)methyl)phenyl)quinolin-6-yl)-2-methoxypyridine-3-yl)-2,4-difluorobenzenesulfonamide] | 1.3 | 0.00174 (≈ 0.0028 µM) | 0.00237 (≈ 0.00382 µM) | 0.089 (≈ 0.143 µM) | 90 to 91 | –
6 | CCN(Cc1ccc(-c2ccnc3ccc(-c4cnc(OC)c(NS(=O)(=O)c5ccc(F)cc5F)c4)cc23)cc1)C1CCCCC1 [Compound 22, N-(5-(4-(4-((cyclohexyl(ethyl)amino)methyl)phenyl)quinolin-6-yl)-2-methoxypyridine-3-yl)-2,4-difluorobenzenesulfonamide] | 1.6 | 0.013 (≈ 0.0202 µM) | 0.143 (≈ 0.222 µM) | 0.93 (≈ 1.45 µM) | 87 to 88 | –
7 | COc1ncc(-c2ccc3nccc(-c4ccc(CN5CCN(C)CC5)cc4)c3c2)cc1NS(=O)(=O)c1ccc(F)cc1F [Compound 23, N-(5-(4-(4-((4-methylpiperazine-1-yl)methyl)phenyl)quinolin-6-yl)-2-methoxypyridine-3-yl)-2,4-difluorobenzenesulfonamide] | 1.3 | 0.00818 (≈ 0.0133 µM) | 0.027 (≈ 0.0439 µM) | 0.207 (≈ 0.336 µM) | – | –
8 | COc1ncc(-c2ccc3nccc(-c4ccc(CN(C)CCN(C)C)cc4)c3c2)cc1NS(=O)(=O)c1ccc(F)cc1F [Compound 24] | 2.5 | 0.00804 (≈ 0.013 µM) | 0.032 (≈ 0.0518 µM) | 0.157 (≈ 0.254 µM) | 87 to 88 | –
9 | COc1ncc(-c2ccc3nccc(-n4cncn4)c3c2)cc1NS(=O)(=O)c1ccc(F)cc1 [Compound 25, N-(5-(4-(1H-1,2,4-triazole-1-yl)quinolin-6-yl)-2-methoxypyridine-3-yl)-4-fluorobenzenesulfonamide] | 1.2 | 1.02 (≈ 2.14 µM) | 1.04 (≈ 2.18 µM) | – | 122 to 124 | 9.49 (≈ 19.9 µM)
10 | O=S(=O)(Nc1cc(-c2ccc3nccc(-c4ccc(CN5CCOCC5)cc4)c3c2)cnc1Cl)c1ccc(F)cc1 [Compound 28, N-(5-(4-(4-((morpholino-1-yl)methyl)phenyl)quinolin-6-yl)-2-chlorinepyridin-3-yl)-4-fluorobenzenesulfonamide] | 1.5 | 0.47 (≈ 0.798 µM) | 1.87 (≈ 3.17 µM) | – | – | 4.55 (≈ 7.72 µM)
11 | COc1ncc(-c2ccc3nccc(-c4ccc(CN5CCOCC5)cc4)c3c2)cc1NS(=O)(=O)c1ccc(F)cc1 [Compound 29, N-(5-(4-(4-((morpholino-1-yl)methyl)phenyl)quinolin-6-yl)-2-methoxypyridine-3-yl)-4-fluorobenzenesulfonamide] | 1.6 | 0.15 (≈ 0.257 µM) | 1.37 (≈ 2.34 µM) | – | – | 15.9 (≈ 27.1 µM)
12 | COc1ncc(-c2ccc3nccc(-c4ccc(CN(C)C)cc4)c3c2)cc1NS(=O)(=O)c1ccc(F)cc1 [Compound 31, N-(5-(4-(4-((dimethylamine)methyl)phenyl)quinolin-6-yl)-2-methoxypyridine-3-yl)-4-fluorobenzenesulfonamide] | 2.1 | 0.2 (≈ 0.369 µM) | 1.02 (≈ 1.88 µM) | – | 150 to 152 | 1.64 (≈ 3.02 µM)
13 | COc1ncc(-c2ccc3nccc(-c4ccc(CN(C)CCO)cc4)c3c2)cc1NS(=O)(=O)c1ccc(F)cc1 [Compound 38, N-(5-(4-(4-(((2-hydroxyethyl)(methyl)amino)methyl)phenyl)quinolin-6-yl)-2-methoxypyridine-3-yl)-4-fluorobenzenesulfonamide] | 4.8 | 0.19 (≈ 0.332 µM) | 1.12 (≈ 1.96 µM) | – | – | 1.06 (≈ 1.85 µM)
14 | COc1cccc2c1C(=O)c1c(O)c3c(c(O)c1C2=O)C[C@@](O)(C(=O)CO)C[C@@H]3O[C@H]1C[C@H](N)[C@H](O)[C@H](C)O1 [DOX, Doxorubicin, reference compound] | – | 0.324 (≈ 0.596 µM) | 0.0308 (≈ 0.0567 µM) | 0.536 (≈ 0.986 µM) | – | –

Continued by falling IC50 (PI3Kα), values first:

Row | IC50 (PI3Kα) [nM] | IC50 [1] [µg/mL] | IC50 [2] [µg/mL] | IC50 [3] [µg/mL] | melting point [°C] | IC50 [4] [µg/mL] | SMILES
15 | 1.1 | 0.042 (≈ 0.0697 µM) | 0.00196 (≈ 0.00325 µM) | 0.091 (≈ 0.151 µM) | 97 to 99 | – | COc1ncc(-c2ccc3nccc(-c4ccc(CN5CCOCC5)cc4)c3c2)cc1NS(=O)(=O)c1ccc(F)cc1F [Compound 13, N-(5-(4-(4-((morpholino-1-yl)methyl)phenyl)quinolin-6-yl)-2-methoxypyridine-3-yl)-2,4-difluorobenzenesulfonamide]
16 | 1.1 | 0.018 (≈ 0.0308 µM) | 0.019 (≈ 0.0326 µM) | 0.35 (≈ 0.6 µM) | 108 to 109 | – | COc1ncc(-c2ccc3nccc(-c4ccc(Cn5ccnc5)cc4)c3c2)cc1NS(=O)(=O)c1ccc(F)cc1F [Compound 15, N-(5-(4-(4-((1H-imidazole-1-yl)methyl)phenyl)quinolin-6-yl)-2-methoxypyridine-3-yl)-2,4-difluorobenzenesulfonamide]
17 | 1.1 | 0.018 (≈ 0.0308 µM) | 0.031 (≈ 0.0531 µM) | 0.935 (≈ 1.6 µM) | 93 to 95 | – | COc1ncc(-c2ccc3nccc(-c4ccc(Cn5cccn5)cc4)c3c2)cc1NS(=O)(=O)c1ccc(F)cc1F [Compound 21, N-(5-(4-(4-((1H-pyrazole-1-yl)methyl)phenyl)quinolin-6-yl)-2-methoxypyridine-3-yl)-2,4-difluorobenzenesulfonamide]
18 | 1.1 | 0.22 (≈ 0.362 µM) | 2.39 (≈ 3.94 µM) | – | – | 1.4 (≈ 2.31 µM) | O=S(=O)(Nc1cc(-c2ccc3nccc(-c4ccc(CN5CCOCC5)cc4)c3c2)cnc1Cl)c1ccc(F)cc1F [Compound 30, N-(5-(4-(4-((morpholino-1-yl)methyl)phenyl)quinolin-6-yl)-2-chlorinepyridin-3-yl)-2,4-difluorobenzenesulfonamide]
19 | 0.95 | 0.00608 (≈ 0.0102 µM) | 0.00846 (≈ 0.0142 µM) | 0.024 (≈ 0.0402 µM) | 110 to 111 | – | COc1ncc(-c2ccc3nccc(-c4ccc(Cn5ccnc5C)cc4)c3c2)cc1NS(=O)(=O)c1ccc(F)cc1F [Compound 16, N-(5-(4-(4-((2-methyl-1H-imidazole-1-yl)methyl)phenyl)quinolin-6-yl)-2-methoxypyridine-3-yl)-2,4-difluorobenzenesulfonamide]
20 | 0.81 | 1.16 (≈ 2.41 µM) | 1.22 (≈ 2.54 µM) | – | 258 to 261 | 9.43 (≈ 19.6 µM) | O=S(=O)(Nc1cc(-c2ccc3nccc(-n4cncn4)c3c2)cnc1Cl)c1ccc(F)cc1 [Compound 27, N-(5-(4-(1H-1,2,4-triazole-1-yl)quinolin-6-yl)-2-chlorinepyridin-3-yl)-4-fluorobenzenesulfonamide]
21 | 0.7 | 0.048 (≈ 0.0799 µM) | 0.221 (≈ 0.368 µM) | 0.284 (≈ 0.473 µM) | 115 to 117 | – | COc1ncc(-c2ccc3nccc(-c4ccc(C(=O)N5CCCC5)cc4)c3c2)cc1NS(=O)(=O)c1ccc(F)cc1F [Compound 11, N-(2-methoxy-5-(4-(4-(pyrrolidinyl-1-carbonyl)phenyl)quinolin-6-yl)pyridin-3-yl)-2,4-difluorobenzenesulfonamide]
22 | 0.59 | 2.35 (≈ 4.71 µM) | 1.23 (≈ 2.47 µM) | – | 118 to 121 | 2.8 (≈ 5.61 µM) | O=S(=O)(Nc1cc(-c2ccc3nccc(-n4cncn4)c3c2)cnc1Cl)c1ccc(F)cc1F [Compound 26, N-(5-(4-(1H-1,2,4-triazole-1-yl)quinolin-6-yl)-2-chlorinepyridin-3-yl)-2,4-difluorobenzenesulfonamide]
